Values quoted from earlier work in patent US20140186466A1, “NEUTRACEUTICAL FORMULATION FOR TREATMENT OF DIABETES” (Creative Medical Health Inc., priority 2012, published 2014).
Read-outs that look alike come from different tables or passages of the source.

Columns and labels:
[1] = test system: patients with diabetes; conditions: 2000 IU/daily for 18 months
[2] = test system: tissue uptake of glucose; conditions: healthy patients and patients with type 2 diabetes
[3] = test system: patients with diabetes; conditions: 500 mg or 1000 mg three times a day, 52 weeks
[4] = test system: patients with type 2 diabetes; conditions: 57 patients, 300 mg daily or placebo, eight weeks
[5] = test system: peripheral neuropathy; conditions: intravenously 600 mg/day over 3 weeks
[6] = test system: type 1 diabetic patients; conditions: 51 type 1 diabetic patients; 600 mg once daily, 5 weeks
[7] = test system: patients with hypertension; conditions: 60 patients with hypertension; 20 mmol/d, 8 weeks
[8] = test system: mesenteric vascular bed; conditions: STZ diabetic rats; 10 g/L in drinking water, 8 weeks; intact and denuded endothelium
[9] = test system: streptozotocin diabetic rats; conditions: 10 g/l in drinking water, eight weeks
[10] = test system: skin microvasculature of diabetic rats; conditions: streptozotocin-diabetic male Wistar rats; 10 g/l in drinking water
[11] = biological target: dipeptidyl peptidase-IV (Homo sapiens, UniProt P27487)
Chain of dipeptidyl peptidase-IV (P27487 whole entry, species assumed): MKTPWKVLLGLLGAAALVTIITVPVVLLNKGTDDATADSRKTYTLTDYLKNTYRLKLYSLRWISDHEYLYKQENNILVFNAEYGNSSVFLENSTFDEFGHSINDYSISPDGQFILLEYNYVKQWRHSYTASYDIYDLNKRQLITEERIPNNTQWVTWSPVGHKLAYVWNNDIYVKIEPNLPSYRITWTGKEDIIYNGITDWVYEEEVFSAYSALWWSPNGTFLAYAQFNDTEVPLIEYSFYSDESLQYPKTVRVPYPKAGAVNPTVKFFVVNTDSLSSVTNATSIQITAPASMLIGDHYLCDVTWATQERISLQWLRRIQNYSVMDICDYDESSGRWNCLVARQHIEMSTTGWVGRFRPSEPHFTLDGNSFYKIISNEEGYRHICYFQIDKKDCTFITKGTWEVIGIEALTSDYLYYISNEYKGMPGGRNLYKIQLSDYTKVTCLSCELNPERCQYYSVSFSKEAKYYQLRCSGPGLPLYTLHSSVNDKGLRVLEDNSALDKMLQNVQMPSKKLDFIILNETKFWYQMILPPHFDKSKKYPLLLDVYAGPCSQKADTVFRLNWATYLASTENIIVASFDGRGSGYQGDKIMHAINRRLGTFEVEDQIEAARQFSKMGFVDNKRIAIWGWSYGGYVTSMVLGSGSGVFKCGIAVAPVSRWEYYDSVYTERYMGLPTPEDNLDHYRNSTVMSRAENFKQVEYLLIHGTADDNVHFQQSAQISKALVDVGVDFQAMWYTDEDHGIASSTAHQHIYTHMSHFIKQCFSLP

[12] = in vivo
[13] = test system: diabetic rat brains; conditions: 0.6 mg/mL in drinking water, 4 weeks
[14] = test system: diabetic rats; conditions: 100 mg/kg, 60 days
[15] = test system: HIV-positive subjects; conditions: 1000 µg/day, eight weeks
[16] = test system: ischemia-reperfusion insult in rats; conditions: 10 mg chromium/kg diet for six weeks
[17] = test system: diabetic rats
[18] = test system: Streptozotocin-induced diabetic animals; conditions: 4 weeks
[19] = test system: inflammatory pathways involved in diabetic nephropathy; conditions: rat model; 22 micrograms in water for 12 weeks (8 mcg/day)
[20] = diabetic rats, 1 mg/kg body weight

## C=C1CC[C@H](O)C/C1=C/C=C1\CCC[C@]2(C)[C@@H]([C@H](C)CCCC(C)C)CC[C@@H]12 [Vitamin D3]
[1]
  serum lipid profiles: beneficial effects

## CC(=O)O[C@H](CC(=O)[O-])C[N+](C)(C)C [acetyl-L-carnitine]
[2]
  tissue uptake of glucose: dose-dependent effects
[3]
  nerve fiber regeneration: improvements
  neuropathic pain: symptomatic relief

## O=C(O)CCCCC1CCSS1 (stereo not drawn) [alpha lipoic acid]
[4]
  fasting blood glucose levels: reduced
[5]
  neuropathic pain: clinically relevant reduction
[6]
  measures of platelet reactivity: reduced

## [O]=[Mg] [magnesium oxide]
[7]
  ambulatory BP reduction, first value of the pair: 2.5 mm Hg
  ambulatory BP reduction, second value of the pair: 1.4 mm Hg
  home BP decrease, first value of the pair: 2.0 mm Hg
  home BP decrease, second value of the pair: 1.4 mm Hg
  office BP fall, first value of the pair: 3.7 mm Hg
  office BP fall, second value of the pair: 1.7 mm Hg

## O=S(=O)([O-])[O-].[Mg+2] [magnesium sulfate]
[8]
  mean perfusion pressure of mesenteric vascular bed: decrease
[9]; STZ 40 mg/kg i.v. diabetic rats
  plasma glucose: to normal levels
[9]; STZ diabetic rats
  high density lipoprotein (HDL): to normal levels
  low density lipoprotein (LDL): to normal levels
  mesenteric fat/body weight ratio: reductions
  systolic blood pressure: to normal levels
  total cholesterol: to normal levels
  triglyceride: to normal levels
  very low density lipoprotein (VLDL): to normal levels
[10]
  endothelial relaxation stimulated with acetylcholine (Ach) or sodium nitroprusside (SNP): enhanced

## CN(C)C(=N)N=C(N)N [metformin, Metformin]
[11]
  dipeptidyl peptidase-IV activity: inhibition
[12]
  glucose utilization: increased
  leptin concentrations: reduction

## [Na+].[Na+].[Na+].[O]=[V]([O-])([O-])[O-] [sodium orthovanadate]
[13]
  ischemic injury in diabetic rat brains: significantly reduced
  neurobehavioral function: improved

## O=S(=O)([O-])[O-].[O]=[V+2] [vanadyl sulfate]
[14]
  blood glucose levels: lower
  serum antioxidant enzyme levels in muscle tissue: decrease

## chromium picolinate
[15]; eight HIV-positive subjects on antiretroviral therapy, before 4.41, range 3.19-12.78, p=0.03
  mean rate of glucose disposal after treatment: 6.51 mg/kg LBM/min
[15]; eight HIV-positive subjects
  increase of mean rate of glucose disposal: 25%
[16]
  myocardial contractility and relaxation following ischemia-reperfusion insult: recovery
[17]; high dose 13.20 μg Cr kg(−1) day(−1), relative to control (non-diabetic) levels
  elevated hepatic and cerebral free fatty acids and malondialdehyde: nearly normalized
[17]; low (human equivalent) dose 2.90 μg Cr kg(−1) day(−1)
  elevated hepatic and cerebral free fatty acids and malondialdehyde: significantly reduced
[18]; 1 mg/kg body weight daily
  plasma glucose levels: lowered
  weight loss in diabetic animals: increased
[18]; 1 mg/kg body weight daily, to near control levels
  glycogen content in the livers: normalized
[18]; [20]
  action of insulin: potentiate
  plasma cholesterol levels: lower
  plasma triglyceride levels: lower
[19]
  activity of inflammatory pathways involved in diabetic nephropathy: reducing the activity
